Columns and labels:
[1] = system: dogs with flea allergic dermatitis; assay: Pruritus intensity by Actical activity monitors in flea allergic dogs; assay type: in vivo, Beagle dogs; conditions: for Actical day, mean (standard deviation): 6am-6pm; for Actical night, mean (standard deviation): 6pm-6am
Procedure: (§1) Flea-allergic laboratory Beagle dogs are infested with fleas. Fifty (50) Ctenocephalides felis fleas, 18 to 20 days old are released on the back of every dog on D1. Dogs are combed 48 hours (D3) after infestation to reduce the number of fleas (reduction of allergen charge).
Pruritus intensity: Pruritus intensity is evaluated using activity monitors (Actical™: Actiwatch™; Cambridge Neuorotechnology Ltd, Papworth Everard, UK) according to Nuttall and McEwan. (Nuttal T and McEwan N, “Objective measurement of pruritus in dogs: a preliminary study using activity monitors”. ESVD, 2006, 17 348-351). The physical activity monitors, mounted on collars, are placed around the dog's neck and tightened to the extent that they more with the skin but not so that they compress the underlying tissues. They were put on the dogs on D −5. […] This typically allows to see the difference in activity when the dogs have fleas and are developing pruritic and inflammatory lesions (i.e. dermatitis) and then again their activity during treatment with either the Test Compound or Prednisolone. The activity monitors are typically removed at the end of each phase on D12. Activity monitors measure the movement average within 15 seconds,
(§2) Skin lesions are allowed to develop until the total lesion score reaches ˜20. The Test Compound is then given orally at 50, 150 and 300 mg/day, divided into 2 doses, for 5 days. Prednisolone (10 mg/day, orally) is used as a comparator.
(§3) Lesion scores and Actical™ measurement values are typically observed on the following days: • Pre-value: before challenge with fleas • the day of challenge with fleas (Actical™ measurements only); • D1: the day when the total lesion score reached a sufficiently high value (average lesion score 20) and treatment of the animal started. • D2 to D6,
(§4) In the treatment group, lesion scores were taken from 8 dogs. Actical™ measurements were also taken from 6 of these dogs.

[2] = system: dogs with flea allergic dermatitis; assay: Skin lesion scores (total lesion score) in dogs with flea-allergic dermatitis; assay type: in vivo, Beagle dogs
Procedure: as §1
Skin observations: before flea infestations (D −1) all dogs are typically examined to establish a baseline score for erythema, papules, crusts, scales, alopecia, and excoriation. From D1, daily clinical observations are performed. Each lesion is typically graded using a scale from 0 to 3:
0=no signs 1=mild 2=moderate 3=severe
as §2
Erythema: is typically an acute clinical sign of cutaneous inflammation defined as redness of the skin caused by capillary congestion which can be aggravated by scratching. Excoriation: is typically a punctuate or linear abrasion produced by mechanical means, usually involving only the epidermis but not uncommonly reaching the papillary dermis. […] Papule: is typically a circumscribed, solid elevation with no visible fluid, varying in size from a pinhead to 1 cm. […], formed when there is a high break in the follicle wall. In the presence of bacteria, papules become pustules. Crusts: are typically dried serum, pus, or blood usually mixed with epithelial and sometimes bacterial debris. Scales: are dry or greasy laminated masses of keratin.
as §3, §4
• Erythema*, • Excoriations*, • Papules/pustules • Self induced alopecia^o, and • Scales, • Erythema and excoriations are related to pruritus • Self induced alopecia is also related to pruritus but the improvement is […] after several weeks of treatment.
Day 1 of treatment when dogs reached a sufficient lesion score to initiate treatment (average 20). Pre-values (baseline).

[3] = 50 mg/day orally in 2 doses, day 1 (treatment start)
[4] = 50 mg/day orally in 2 doses, day 2
[5] = 50 mg/day orally in 2 doses, day 3
[6] = 50 mg/day orally in 2 doses, day 4
[7] = 50 mg/day orally in 2 doses, day 5
[8] = 50 mg/day orally in 2 doses, day 6
[9] = 150 mg/day orally in 2 doses, day 1 (treatment start)
[10] = 150 mg/day orally in 2 doses, day 2
[11] = 150 mg/day orally in 2 doses, day 3
[12] = 150 mg/day orally in 2 doses, day 4
[13] = 150 mg/day orally in 2 doses, day 5
[14] = 150 mg/day orally in 2 doses, day 6
[15] = 300 mg/day orally in 2 doses, day 1 (treatment start)
[16] = 300 mg/day orally in 2 doses, day 2
[17] = 300 mg/day orally in 2 doses, day 3
[18] = 300 mg/day orally in 2 doses, day 4
[19] = 300 mg/day orally in 2 doses, day 5
[20] = 300 mg/day orally in 2 doses, day 6

CN(C(=O)c1cc(C(F)(F)F)cc(C(F)(F)F)c1)[C@@H](/C=C/C(=O)N[C@@H]1CCCCNC1=O)Cc1ccc(Cl)c(Cl)c1 [Test Compound, N-[(E)-(R)-1-(3,4-Dichloro-benzyl)-3-((R)-2-oxo-azepan-3-ylcarbamoyl)-allyl]-N-methyl-3,5-bis-trifluoromethyl-benzamide]
Control of pruritic activity (daytime) compared with Prednisolone ([1]; 150 mg and 50 mg, after 5 days of BID administrations): equipotent to the Prednisolone controls
Actical day, mean (standard deviation) [1, 3]: 88 (46) Average activity counts every 15 secs
Actical day, mean (standard deviation) [1, 4]: 64 (40) Average activity counts every 15 secs
Actical day, mean (standard deviation) [1, 5]: 72 (35) Average activity counts every 15 secs
Actical day, mean (standard deviation) [1, 6]: 67 (37) Average activity counts every 15 secs
Actical day, mean (standard deviation) [1, 7]: 62 (40) Average activity counts every 15 secs
Actical day, mean (standard deviation) [1, 8]: 48 (31) Average activity counts every 15 secs
Actical day, mean (standard deviation) ([1]; 50 mg/day orally in 2 doses, fleas (day of challenge)): 84 (47) Average activity counts every 15 secs
Actical day, mean (standard deviation) ([1]; 50 mg/day orally in 2 doses, pre (before exposure to fleas)): 46 (16) Average activity counts every 15 secs
Actical day, mean (standard deviation) [1, 9]: 58 (17) Average activity counts every 15 secs
Actical day, mean (standard deviation) [1, 10]: 48 (13) Average activity counts every 15 secs
Actical day, mean (standard deviation) [1, 11]: 53 (15) Average activity counts every 15 secs
Actical day, mean (standard deviation) [1, 12]: 44 (17) Average activity counts every 15 secs
Actical day, mean (standard deviation) [1, 13]: 60 (41) Average activity counts every 15 secs
Actical day, mean (standard deviation) [1, 14]: 40 (21) Average activity counts every 15 secs
Actical day, mean (standard deviation) ([1]; 150 mg/day orally in 2 doses, fleas (day of challenge)): 53 (16) Average activity counts every 15 secs
Actical day, mean (standard deviation) ([1]; 150 mg/day orally in 2 doses, pre (before exposure to fleas)): 31 (8) Average activity counts every 15 secs
Actical day, mean (standard deviation) [1, 15]: 114 (35) Average activity counts every 15 secs
Actical day, mean (standard deviation) [1, 16]: 116 (77) Average activity counts every 15 secs
Actical day, mean (standard deviation) [1, 17]: 99 (38) Average activity counts every 15 secs
Actical day, mean (standard deviation) [1, 18]: 107 (28) Average activity counts every 15 secs
Actical day, mean (standard deviation) [1, 19]: 129 (53) Average activity counts every 15 secs
Actical day, mean (standard deviation) [1, 20]: 79 (21) Average activity counts every 15 secs
Actical day, mean (standard deviation) ([1]; 300 mg/day orally in 2 doses, fleas (day of challenge)): 93 (37) Average activity counts every 15 secs
Actical day, mean (standard deviation) ([1]; 300 mg/day orally in 2 doses, pre (before exposure to fleas)): 58 (21) Average activity counts every 15 secs
Actical night, mean (standard deviation) ([1]; 50 mg/day orally in 2 doses, Fleas (day of challenge)): 6.8 (4.9) Average activity counts every 15 secs
Actical night, mean (standard deviation) ([1]; 50 mg/day orally in 2 doses, Pre (before exposure to fleas)): 5.2 (3.3) Average activity counts every 15 secs
Actical night, mean (standard deviation) [1, 3]: 22.1 (13.5) Average activity counts every 15 secs
Actical night, mean (standard deviation) [1, 4]: 13.2 (11.8) Average activity counts every 15 secs
Actical night, mean (standard deviation) [1, 5]: 11.5 (7.3) Average activity counts every 15 secs
Actical night, mean (standard deviation) [1, 6]: 12.6 (9.9) Average activity counts every 15 secs
Actical night, mean (standard deviation) [1, 7]: 9.8 (6.8) Average activity counts every 15 secs
Actical night, mean (standard deviation) [1, 8]: 9.9 (7.4) Average activity counts every 15 secs
Actical night, mean (standard deviation) ([1]; 150 mg/day orally in 2 doses, Fleas (day of challenge)): 6.2 (3.8) Average activity counts every 15 secs
Actical night, mean (standard deviation) ([1]; 150 mg/day orally in 2 doses, Pre (before exposure to fleas)): 4.2 (2.2) Average activity counts every 15 secs
Actical night, mean (standard deviation) [1, 9]: 14.6 (4.2) Average activity counts every 15 secs
Actical night, mean (standard deviation) [1, 10]: 10.7 (6.8) Average activity counts every 15 secs
Actical night, mean (standard deviation) [1, 11]: 10.6 (7.5) Average activity counts every 15 secs
Actical night, mean (standard deviation) [1, 12]: 9.4 (4.2) Average activity counts every 15 secs
Actical night, mean (standard deviation) [1, 13]: 10.4 (6.5) Average activity counts every 15 secs
Actical night, mean (standard deviation) [1, 14]: 11.2 (7.4) Average activity counts every 15 secs
Actical night, mean (standard deviation) ([1]; 300 mg/day orally in 2 doses, Fleas (day of challenge)): 6.8 (3.0) Average activity counts every 15 secs
Actical night, mean (standard deviation) ([1]; 300 mg/day orally in 2 doses, Pre (before exposure to fleas)): 7.0 (3.8) Average activity counts every 15 secs
Actical night, mean (standard deviation) [1, 15]: 24.6 (22.5) Average activity counts every 15 secs
Actical night, mean (standard deviation) [1, 16]: 11.9 (4.8) Average activity counts every 15 secs
Actical night, mean (standard deviation) [1, 17]: 16.8 (9.5) Average activity counts every 15 secs
Actical night, mean (standard deviation) [1, 18]: 20.7 (10.5) Average activity counts every 15 secs
Actical night, mean (standard deviation) [1, 19]: 16.2 (13.2) Average activity counts every 15 secs
Actical night, mean (standard deviation) [1, 20]: 13.3 (10.2) Average activity counts every 15 secs
Control of nighttime activity back to baseline ([1]; Test Compound doses, in particular 50 mg, BID): positive efficacy
Total score ctb (total lesion score compared to baseline), mean (standard deviation) [2, 4]: −3.7 (4.9)
Total score ctb (total lesion score compared to baseline), mean (standard deviation) [2, 5]: −2.8 (5.5)
Total score ctb (total lesion score compared to baseline), mean (standard deviation) [2, 6]: −1.9 (7.1)
Total score ctb (total lesion score compared to baseline), mean (standard deviation) [2, 7]: −2.8 (6.4)
Total score ctb (total lesion score compared to baseline), mean (standard deviation) [2, 8]: −8.7 (9.9)
Total score ctb (total lesion score compared to baseline), mean (standard deviation) [2, 10]: −2.3 (3.3)
Total score ctb (total lesion score compared to baseline), mean (standard deviation) [2, 11]: −3.9 (4.0)
Total score ctb (total lesion score compared to baseline), mean (standard deviation) [2, 12]: −6.4 (3.3)
Total score ctb (total lesion score compared to baseline), mean (standard deviation) [2, 13]: −5.0 (3.8)
Total score ctb (total lesion score compared to baseline), mean (standard deviation) [2, 14]: −8.8 (8.8)
Reduction of the lesion score (inhibition) compared with prednisolone ([2]; 300 mg, 150 mg, 50 mg): in the same range as the potent corticosteroid prednisolone
Total score ctb (total lesion score compared to baseline), mean (standard deviation) [2, 16]: −3.6 (9.1)
Total score ctb (total lesion score compared to baseline), mean (standard deviation) [2, 17]: −4.1 (6.4)
Total score ctb (total lesion score compared to baseline), mean (standard deviation) [2, 18]: −7.6 (8.4)
Total score ctb (total lesion score compared to baseline), mean (standard deviation) [2, 19]: −7.6 (9.7)
Total score ctb (total lesion score compared to baseline), mean (standard deviation) [2, 20]: −6.7 (8.1)
